Measured values: US8269000B2, “Substituted pyrimidine and triazine compounds” (Gruenenthal GmbH, priority 2008, dated 2012)

These compounds were tested against T1, rat B1R (Rattus norvegicus, UniProt P97583) (assay: FLIPR Ca2+ functional study on bradykinin receptor 1 (rB1R CHO K1 cells)). Conditions: % inhibition rat B1R at 10 μM.
T1 construct: expressed in transfected cells; host or cells: CHO K1 cells
T1 sequence (P97583 1-337): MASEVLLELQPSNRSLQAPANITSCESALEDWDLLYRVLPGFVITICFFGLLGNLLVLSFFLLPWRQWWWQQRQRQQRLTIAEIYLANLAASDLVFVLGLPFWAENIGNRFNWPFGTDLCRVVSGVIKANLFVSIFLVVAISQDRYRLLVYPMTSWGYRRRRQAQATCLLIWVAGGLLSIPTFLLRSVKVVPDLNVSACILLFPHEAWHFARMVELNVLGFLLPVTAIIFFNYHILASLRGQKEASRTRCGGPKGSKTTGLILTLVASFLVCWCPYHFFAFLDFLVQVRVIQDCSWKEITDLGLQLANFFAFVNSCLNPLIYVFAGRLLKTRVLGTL
Format: cell-based
Procedure: The agonistic or antagonistic activity of substances can be quantified on the bradykinin receptor 1 (B1R) of the species human and rat using ectopically expressing cell lines (CHO K1 cells) and with the aid of a Ca^2+-sensitive dye (Fluo-4) using a fluorescent imaging plate reader (FLIPR). The indication in % activation is based on the Ca^2+ signal after addition of Lys-Des-Arg^9-bradykinin (0.5 nM) or Des-Arg^9-bradykinin (100 nM). Antagonists lead to suppression of the Ca^2+ influx after the addition of the agonist. % Inhibition compared with the maximum achievable inhibition is indicated.
The agonistic or antagonistic activity of substances can be determined on the bradykinin receptor 1 (B1R) of the species human and rat using the following assay. According to this assay, the Ca^2+ influx through the channel is quantified with the aid of a Ca^2+-sensitive dye (Fluo-4 type, Molecular Probes Europe BV, Leiden, Netherlands) using a Fluorescent Imaging Plate Reader (FLIPR, Molecular Devices, Sunnyvale, USA).
Chinese hamster ovary cells (CHO K1 cells) which have been stably transfected with the human B1R gene (hB1R cells) or with the B1R gene of the rat (rB1R cells) are used. For functional studies, the cells are plated out on black 96-well plates having a clear base (BD Biosciences, Heidelberg, Germany or Greiner, Frickenhausen, Germany) in a density of 20,000-35,000 cells/well. The cells are left overnight at 37° C. and with 5% CO2 in culture medium (hB1R cells: Nutrient Mixture Ham's F12, Gibco Invitrogen GmbH, Karlsruhe, Germany or DMEM, Sigma-Aldrich, Taufkirchen, Germany; rB1R cells: D-MEM/F12, Gibco Invitrogen GmbH, Karlsruhe, Germany), with 10 vol.% FBS (fetal bovine serum, Gibco Invitrogen GmbH, Karlsruhe, Germany or PAN Biotech GmbH, Aidenbach, Germany). On the following day, the cells are loaded for 60 minutes at 37° C. with 2.13 μM Fluo-4 (Molecular Probes Europe BV, Leiden, Netherlands) in HBSS buffer (Hank's buffered saline solution, Gibco Invitrogen GmbH, Karlsruhe, Germany) […] (Sigma-Aldrich, Taufkirchen, Germany) and 10 mM HEPES (Sigma-Aldrich, Taufkirchen, Germany). The plates are then washed twice with HBSS buffer, and HBSS buffer additionally containing 0.1% BSA (bovine serum albumin; Sigma-Aldrich, Taufkirchen, Germany), 5.6 mM glucose and 0.05% gelatin (Merck KGaA, Darmstadt, Germany) is added to the plates. After incubation for a further 20 minutes at room temperature, the plates are inserted into the FLIPR for Ca^2+ measurement. Alternatively, washing is carried out with buffer A (15 mM HEPES, 80 mM NaCl, 5 mM KCl, 1.2 mM CaCl2, 0.7 mM MgSO4, 2 g/l glucose, 2.5 mM probenecid) followed by loading with buffer A with added 2.5 μM Fluo-4 and 0.025% Pluronic F127 (Sigma-Aldrich, Taufkirchen, Germany). The cells are then washed twice with buffer A and incubated for 30 minutes at room temperature with buffer A additionally containing 0.05% BSA and 0.05% gelatin and are then inserted into the FLIPR for Ca^2+ measurement. The Ca^2+-dependent fluorescence is measured before and after the addition of substances (λex=488 nm, λem=540 nm). Quantification is carried out by measuring the highest fluorescence intensity (FC, fluorescence counts) over time.
The FLIPR protocol consists of two substance additions. Test substances (10 μM) are first pipetted onto the cells and the Ca^2+ influx is compared with the control (hB1R: Lys-Des-Arg^9-bradykinin>=50 nM; rB1R: Des-Arg^9-bradykinin 10 μM). This gives the activation in %, based on the Ca^2+ signal after addition of Lys-Des-Arg^9-bradykinin (>=50 nM) or Des-Arg^9-bradykinin (10 μM). After 10-20 minutes' incubation, Lys-Des-Arg^9-bradykinin (hB1R) or Des-Arg^9-bradykinin (rB1R) is applied in the concentration of the EC80, and the influx of Ca^2+ is likewise determined. Antagonists lead to suppression of the Ca^2+ influx. The % inhibition compared with the maximum achievable inhibition is calculated. […]

| Compound | % inh. (rat B1R) 10 μM |
| --- | --- |
| 4-[[1-[(4-methoxy-2,6-dimethyl-phenyl)sulfonyl]-piperidin-2-yl]-methoxy]-2-(4-pyrazin-2-yloxy-piperidin-1-yl)-pyrimidine [H_CC-080] | 59% |
| COc1cc(C)c(S(=O)(=O)N(C)CCOc2nccc(N3CCN(CC4CCN(C)CC4)CC3)n2)c(C)c1 [G_CC-007, 4-methoxy-N,2,6-trimethyl-N-[2-[[4-[4-[(1-methyl-4-piperidinyl)methyl]-1-piperazin]-2-pyrimidinyl]oxy]ethyl]benzenesulfonamide] | 95% |
| COc1cc(C)c(S(=O)(=O)N2CCCC(Oc3nccc(N4CCC(CCN5CCCCC5)CC4)n3)C2)c(C)c1 (stereo not drawn) [G_CC-027] | 63% |

Same assay, conditions: CHO-K1, % inhibition rat B1R at 10 μM, read-out: % inh. (rat B1R) 10 μM

| Compound | inhibition at 10 µM |
| --- | --- |
| O=S(=O)(c1cccc(C(F)(F)F)c1)N(CCCc1ccnc(N2CCC3(CCN(c4ccncc4)CC3)CC2)n1)C1CC1 [Example I-008, N-cyclopropyl-N-[3-[2-(9-pyridin-4-yl-3,9-diazaspiro[5.5]undecan-3-yl)-pyrimidin-4-yl]-propyl]-3-(trifluoromethyl)-benzenesulfonic acid amide] | 94% |
| COc1cc(C)c(S(=O)(=O)N(C)CCOc2nccc(N3CCN(c4ccc(F)cc4)CC3)n2)c(C)c1 [G_CC-005, N-[2-[[4-[4-(4-fluorophenyl)-1-piperazinyl]-2-pyrimidinyl]oxy]ethyl]-4-methoxy-N,2,6-trimethylbenzenesulfonamide] | 81% |
| COc1cc(C)c(S(=O)(=O)N(C)CCOc2nccc(N3CCC(N4CCN(C)CC4)CC3)n2)c(C)c1 [G_CC-006, 4-methoxy-N,2,6-trimethyl-N-[2-[[4-[4-(4-methyl-1-piperazinyl)-1-piperidinyl]-2-pyrimidinyl]oxy]ethyl]benzenesulfonamide] | 97% |
| COc1cc(C)c(S(=O)(=O)N(C)CCOc2nccc(N3CCC(O)(c4cccnc4)CC3)n2)c(C)c1 [G_CC-008, N-[2-[[4-[4-hydroxy-4-(3-pyridyl)-1-piperidinyl]-2-pyrimidinyl]oxy]ethyl]-4-methoxy-N,2,6-trimethylbenzenesulfonamide] | 59% |
| COc1cc(C)c(S(=O)(=O)N2CCCCC2COc2nccc(N3CCN(c4ncccn4)CC3)n2)c(C)c1 (stereo not drawn) [G_CC-012, 2-[[1-(4-methoxy-2,6-dimethylphenyl)sulfonyl-2-piperidinyl]methoxy]-4-[4-(2-pyrimidinyl)-1-piperazinyl]pyrimidine] | 76% |
| COc1cc(C)c(S(=O)(=O)N2CCC[C@H]2COc2nccc(N3CCN(C)CC3)n2)c(C)c1 [G_CC-015, 2-[[(2S)-1-(4-methoxy-2,6-dimethylphenyl)sulfonyl-2-pyrrolidinyl]methoxy]-4-(4-methyl-1-piperazinyl)pyrimidine] | 83% |
| COc1cc(C)c(S(=O)(=O)N2CCC[C@H]2COc2nccc(N3CCC(N4CCN(C)CC4)CC3)n2)c(C)c1 [G_CC-017, 2-[[(2S)-1-(4-methoxy-2,6-dimethylphenyl)sulfonyl-2-pyrrolidinyl]methoxy]-4-[4-(4-methyl-1-piperazinyl)-1-piperidinyl]pyrimidine] | 98% |
| COc1cc(C)c(S(=O)(=O)N2CCC[C@H]2COc2nccc(N3CCN(c4ncccn4)CC3)n2)c(C)c1 [G_CC-018, 2-[[(2S)-1-(4-methoxy-2,6-dimethylphenyl)sulfonyl-2-pyrrolidinyl]methoxy]-4-[4-(2-pyrimidinyl)-1-piperazinyl]pyrimidine] | 97% |
| COc1cc(C)c(S(=O)(=O)N2CCCCC2COc2nccc(N3CCC(n4c(=O)[nH]c5cc(Cl)ccc54)CC3)n2)c(C)c1 (stereo not drawn) [G_CC-024, 6-chloro-3-[1-[2-[[1-(4-methoxy-2,6-dimethylphenyl)sulfonyl-2-piperidinyl]methoxy]-4-pyrimidinyl]-4-piperidinyl]-1H-benzimidazol-2-one] | 73% |
| COc1cc(C)c(S(=O)(=O)N(C)CCOc2nccc(N3CCC4(CCN(Cc5ccccc5)C4)C3)n2)c(C)c1 (stereo not drawn) [G_CC-028, N-[2-[[4-(3-benzyl-3,7-diazaspiro[4.4]nonan-7-yl)-2-pyrimidinyl]oxy]ethyl]-4-methoxy-N,2,6-trimethylbenzenesulfonamide] | 104% |
| COc1cc(C)c(S(=O)(=O)N(C)CCOc2nccc(N3CCC4(CC3)OCc3ccccc34)n2)c(C)c1 [G_CC-029, 4-methoxy-N,2,6-trimethyl-N-[2-[[4-(1′-spiro[1H-isobenzofuran-3,4′-piperidin]yl)-2-pyrimidinyl]oxy]ethyl]benzenesulfonamide] | 52% |

The remaining lines, values ahead:

| inhibition at 10 µM | Compound |
| --- | --- |
| 63% | COc1cc(C)c(S(=O)(=O)N2CCCCC2COc2nccc(N3CCN(C)CC3)n2)c(C)c1 (stereo not drawn) [G_CC-009, 2-[[1-(4-methoxy-2,6-dimethylphenyl)sulfonyl-2-piperidinyl]methoxy]-4-(4-methyl-1-piperazinyl)pyrimidine] |
| 70% | COc1cc(C)c(S(=O)(=O)N2CCCCC2COc2nccc(N3CCN(c4ccc(F)cc4)CC3)n2)c(C)c1 (stereo not drawn) [G_CC-010, 4-[4-(4-fluorophenyl)-1-piperazinyl]-2-[[1-(4-methoxy-2,6-dimethylphenyl)sulfonyl-2-piperidinyl]methoxy]pyrimidine] |
| 102% | COc1cc(C)c(S(=O)(=O)N2CCC[C@H]2COc2nccc(N3CCC(O)(c4cccnc4)CC3)n2)c(C)c1 [G_CC-020, 1-[2-[[(2S)-1-(4-methoxy-2,6-dimethylphenyl)sulfonyl-2-pyrrolidinyl]methoxy]-4-pyrimidinyl]-4-(3-pyridyl)-4-piperidinol] |
| 104% | COc1cc(C)c(S(=O)(=O)N2CCCCC2COc2nccc(N3CCC4(CCN(Cc5ccccc5)C4)C3)n2)c(C)c1 (stereo not drawn) [G_CC-022, 3-benzyl-7-[2-[[1-(4-methoxy-2,6-dimethylphenyl)sulfonyl-2-piperidinyl]methoxy]-4-pyrimidinyl]-3,7-diazaspiro[4.4]nonane] |
| 50% | COc1cc(C)c(S(=O)(=O)N2CCCCC2COc2nccc(N3CCC4(CC3)OCc3ccccc34)n2)c(C)c1 (stereo not drawn) [G_CC-023, 1′-[2-[[1-(4-methoxy-2,6-dimethylphenyl)sulfonyl-2-piperidinyl]methoxy]-4-pyrimidinyl]spiro[1H-isobenzofuran-3,4′-piperidine]] |
| 95% | COc1cc(C)c(S(=O)(=O)N2CCCCC2COc2nccc(N3CCC4(CC3)C(=O)NCN4c3ccccc3)n2)c(C)c1 (stereo not drawn) [G_CC-025, 8-[2-[[1-(4-methoxy-2,6-dimethylphenyl)sulfonyl-2-piperidinyl]methoxy]-4-pyrimidinyl]-4-phenyl-2,4,8-triazaspiro[4.5]decan-1-one] |
| 79% | COc1cc(C)c(S(=O)(=O)N(C)CCOc2nccc(N3CCC4(CC3)C(=O)NCN4c3ccccc3)n2)c(C)c1 [G_CC-030, 4-methoxy-N,2,6-trimethyl-N-[2-[[4-(1-oxo-4-phenyl-2,4,8-triazaspiro[4.5]decan-8-yl)-2-pyrimidinyl]oxy]ethyl]benzenesulfonamide] |
